Experimental data published in US9695155B2, “Herbicidal substituted pyrimidinyloxy benzene compounds” (E. I. DU PONT DE NEMOURS AND COMPANY, priority 2013, dated 2017).

Assays:
Italian ryegrass [1] = assay: Test A postemergence; format: in vivo, Lolium multiflorum
Summary of the method: (§1)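 Visual 0–100 rating (100 = complete control) taken about 10 d post-treatment relative to untreated checks. Preemergence: directed soil spray on sown loam/sand pots. Postemergence: seedlings 2–10 cm, 1–2 leaf. Non-phytotoxic solvent formulation with surfactant.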

soybean = assay: Test C postemergence; format: in vivo, Glycine max
Summary of the method: (§2)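 Preemergence: seeds sown in a loam soil–sand blend and sprayed with test chemical in a non-phytotoxic solvent mixture containing surfactant. Postemergence: plants at 2 to 18 cm (1- to 4-leaf stage) in peat-based medium, treated with the same formulation. Greenhouse 13 to 15 days, then visual rating 0 (no effect) to 100 (complete control).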

barnyardgrass [2] = assay: Test A preemergence; format: in vivo, Echinochloa crus-galli
Summary of the method: as §1

galium [3] = assay: Test C preemergence; format: in vivo, Galium aparine; settings: for Galium plant response rating: preemergence
Summary of the method: as §2

ragweed = assay: Test C postemergence; format: in vivo, Ambrosia elatior
Summary of the method: as §2

Italian ryegrass [4] = assay: Test A preemergence; format: in vivo, Lolium multiflorum
Summary of the method: as §1

galium [5] = assay: Test C postemergence; format: in vivo, Galium aparine
Summary of the method: as §2

kochia = assay: Test A preemergence; format: in vivo, Kochia scoparia
Summary of the method: as §1

Italian ryegrass [6] = assay: Test C preemergence; format: in vivo, Lolium multiflorum; settings: for Ryegrass, Italian plant response rating: preemergence
Summary of the method: as §2

lambsquarters = assay: Test C postemergence; format: in vivo, Chenopodium album
Summary of the method: as §2

barnyardgrass [7] = assay: Test A postemergence; format: in vivo, Echinochloa crus-galli
Summary of the method: as §1

blackgrass = assay: Test C postemergence; format: in vivo, Alopecurus myosuroides
Summary of the method: as §2

velvetleaf = assay: Test C postemergence; format: in vivo, Abutilon theophrasti
Summary of the method: as §2

morningglory = assay: Test C preemergence; format: in vivo, Ipomoea coccinea; settings: for Morningglory plant response rating: preemergence
Summary of the method: as §2

giant foxtail = assay: Test C postemergence; format: in vivo, Setaria faberii
Summary of the method: as §2

johnsongrass = assay: Test C preemergence; format: in vivo, Sorghum halepense; settings: for Johnsongrass plant response rating: preemergence
Summary of the method: as §2

wheat = assay: Test A postemergence; format: in vivo, Triticum aestivum
Summary of the method: as §1

[8] = 125 g ai/ha, 0 to 100 scale, 0 no effect, 100 complete control
[9] = 500 g ai/ha, 0 to 100 scale where 0 is no effect and 100 is complete control
[10] = 16 g ai/ha, postemergence, 0 is no effect, 100 is complete control
[11] = 31 g ai/ha, postemergence, visual rating, scale 0 to 100 (0 no effect, 100 complete control), 13 to 15 days
[12] = 125 g ai/ha, postemergence, visual rating, scale 0 to 100 (0 no effect, 100 complete control)
[13] = Postemergence, 62 g ai/ha, scale 0 to 100 (0 no effect, 100 complete control), 13 to 15 days
[14] = 16 g ai/ha, scale 0 to 100 (0 no effect, 100 complete control)
[15] = 125 g ai/ha, scale 0 (no effect) to 100 (complete control)
[16] = Preemergence, 62 g ai/ha, scale 0 to 100, 0 no effect, 100 complete control

N#Cc1cnn(-c2c(Oc3ncc(F)cn3)cccc2C(F)F)c1 [Compound 240]
Plant response rating, Ryegrass, Italian (Italian ryegrass [1]; [8]): 40 | Plant response rating, Ryegrass, Italian (Italian ryegrass [1]; [9]): 100 | Plant response rating (0 to 100), Soybean (soybean; [10]): 30 | Soybean plant response rating (soybean; [11]): 40 | Plant response rating, Soybean (soybean; [12]): 75 | Plant response rating, Soybean (soybean; [13]): 60 | Barnyardgrass plant response rating (0 to 100 scale, 0 is no effect, 100 is complete control) (barnyardgrass [2]; 125 g ai/ha): 90 | Barnyardgrass plant response rating (barnyardgrass [2]; [9]): 100 | Galium plant response rating (galium [3]; [14]): 5 | Galium plant response rating (galium [3]; [15]): 100 | Plant response rating, Galium (galium [3]; [16]): 100 | Plant response rating (0 to 100), Ragweed (ragweed; [10]): 35 | Ragweed plant response rating (ragweed; [11]): 40 | Plant response rating, Ragweed (ragweed; [12]): 75 | Plant response rating, Ragweed (ragweed; [13]): 55 | Ryegrass, Italian plant response rating (0 to 100 scale) (Italian ryegrass [4]; 125 g ai/ha): 20 | Ryegrass, Italian plant response rating (Italian ryegrass [4]; [9]): 70 | Plant response rating (0 to 100), Galium (galium [5]; [10]): 35 | Galium plant response rating (galium [5]; [11]): 40 | Plant response rating, Galium (galium [5]; [12]): 70 | Plant response rating, Galium (galium [5]; [13]): 55 | Kochia plant response rating (0 to 100 scale) (kochia; 125 g ai/ha): 100 | Kochia plant response rating (kochia; [9]): 100 | Ryegrass, Italian plant response rating (Italian ryegrass [6]; [14]): 0 | Ryegrass, Italian plant response rating (Italian ryegrass [6]; [15]): 50 | Plant response rating, Ryegrass, Italian (Italian ryegrass [6]; [16]): 0 | Plant response rating (0 to 100), Lambsquarters (lambsquarters; [10]): 15 | Lambsquarters plant response rating (lambsquarters; [11]): 45 | Plant response rating, Lambsquarters (lambsquarters; [12]): 90 | Plant response rating, Lambsquarters (lambsquarters; [13]): 75 | Plant response rating, Barnyardgrass (barnyardgrass [7]; [8]): 90 | Plant response rating, Barnyardgrass (barnyardgrass [7]; [9]): 100 | Plant response rating (0 to 100), Blackgrass (blackgrass; [10]): 0 | Blackgrass plant response rating (blackgrass; [11]): 0 | Plant response rating, Blackgrass (blackgrass; [12]): 5 | Plant response rating, Blackgrass (blackgrass; [13]): 0 | Plant response rating (0 to 100), Velvetleaf (velvetleaf; [10]): 10 | Velvetleaf plant response rating (velvetleaf; [11]): 25 | Plant response rating, Velvetleaf (velvetleaf; [12]): 80 | Plant response rating, Velvetleaf (velvetleaf; [13]): 45 | Morningglory plant response rating (morningglory; [14]): 15 | Morningglory plant response rating (morningglory; [15]): 75 | Plant response rating, Morningglory (morningglory; [16]): 75 | Plant response rating (0 to 100), Foxtail, Giant (giant foxtail; [10]): 0 | Foxtail, Giant plant response rating (giant foxtail; [11]): 35 | Plant response rating, Foxtail, Giant (giant foxtail; [12]): 40 | Plant response rating, Foxtail, Giant (giant foxtail; [13]): 20 | Johnsongrass plant response rating (johnsongrass; [14]): 5 | Johnsongrass plant response rating (johnsongrass; [15]): 45 | Plant response rating, Johnsongrass (johnsongrass; [16]): 10 | Plant response rating, Wheat (wheat; [8]): 30 | Plant response rating, Wheat (wheat; [9]): 90
